The text below walks through data of ChEMBL document CHEMBL3132769, “Fragment growing to retain or alter the selectivity of anchored kinase hinge-binding fragments” (Medchemcomm, 2014).

SMILES strings stand for the structures.

Experiment [1] deals with Vascular endothelial growth factor receptor 2 (Homo sapiens) (UniProt P35968). Kind of experiment: Inhibition of human KDR cytoplasmic domain expressed in baculovirus assessed as substrate phosphorylation using fluorescence-labelled peptides as substrate at 0.1 uM after 90 mins by microfluidic peptide phosphorylation assay.
Experiment [2] has as its target Ribosomal protein S6 kinase alpha-1 (Homo sapiens) (UniProt Q15418). Kind of experiment: Inhibition of human full length RSK1 expressed in baculovirus assessed as substrate phosphorylation using fluorescence-labelled peptides as substrate at 0.2 uM after 90 mins by microfluidic peptide phosphorylation assay.
In experiment [3] the target is T1, Aurora kinase A (Homo sapiens) (UniProt O14965).
T1 sequence (whole entry): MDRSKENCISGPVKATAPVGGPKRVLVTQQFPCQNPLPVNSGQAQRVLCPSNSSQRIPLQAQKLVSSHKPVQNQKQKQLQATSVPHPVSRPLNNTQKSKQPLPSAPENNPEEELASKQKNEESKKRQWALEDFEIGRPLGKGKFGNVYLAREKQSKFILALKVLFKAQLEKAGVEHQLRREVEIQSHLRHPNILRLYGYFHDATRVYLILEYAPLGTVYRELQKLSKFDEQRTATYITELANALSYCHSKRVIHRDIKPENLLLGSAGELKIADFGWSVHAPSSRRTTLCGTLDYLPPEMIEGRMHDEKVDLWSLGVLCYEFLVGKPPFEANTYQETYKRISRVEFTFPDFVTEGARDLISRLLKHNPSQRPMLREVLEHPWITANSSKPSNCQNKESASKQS
Kind of experiment: Inhibition of human full length AurA expressed in baculovirus assessed as substrate phosphorylation using fluorescence-labelled peptides as substrate at 9 uM after 90 mins by microfluidic peptide phosphorylation assay.

Experiment [4] concerns the target T2, Testis-specific serine/threonine-protein kinase 2 (Homo sapiens) (UniProt Q96PF2).
T2 sequence (whole entry): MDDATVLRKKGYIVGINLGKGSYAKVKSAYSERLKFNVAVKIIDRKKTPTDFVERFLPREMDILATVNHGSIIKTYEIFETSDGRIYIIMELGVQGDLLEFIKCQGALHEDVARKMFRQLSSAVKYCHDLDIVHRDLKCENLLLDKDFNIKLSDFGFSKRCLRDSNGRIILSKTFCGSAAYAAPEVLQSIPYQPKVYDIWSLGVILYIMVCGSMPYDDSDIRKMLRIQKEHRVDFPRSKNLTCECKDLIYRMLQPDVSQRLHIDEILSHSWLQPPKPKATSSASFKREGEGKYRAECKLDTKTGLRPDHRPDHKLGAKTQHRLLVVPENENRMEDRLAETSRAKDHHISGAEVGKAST
In words: Inhibition of human full length TSSK2 expressed in baculovirus assessed as substrate phosphorylation using fluorescence-labelled peptides as substrate at 9 uM after 90 mins by microfluidic peptide phosphorylation assay.

Experiment [5] addresses Tyrosine-protein kinase BTK (Homo sapiens) (UniProt Q06187). In words: Inhibition of human full length BTK expressed in baculovirus assessed as substrate phosphorylation using fluorescence-labelled peptides as substrate at 8 uM after 90 mins by microfluidic peptide phosphorylation assay.
Experiment [6] addresses Ribosomal protein S6 kinase alpha-2 (Homo sapiens) (UniProt Q15349). In words: Inhibition of human full length RSK3 expressed in baculovirus assessed as substrate phosphorylation using fluorescence-labelled peptides as substrate at 70 uM after 90 mins by microfluidic peptide phosphorylation assay.
In experiment [7] the target is T3, Serine/threonine-protein kinase DCLK2 (Homo sapiens) (UniProt Q8N568).
T3 sequence (whole entry): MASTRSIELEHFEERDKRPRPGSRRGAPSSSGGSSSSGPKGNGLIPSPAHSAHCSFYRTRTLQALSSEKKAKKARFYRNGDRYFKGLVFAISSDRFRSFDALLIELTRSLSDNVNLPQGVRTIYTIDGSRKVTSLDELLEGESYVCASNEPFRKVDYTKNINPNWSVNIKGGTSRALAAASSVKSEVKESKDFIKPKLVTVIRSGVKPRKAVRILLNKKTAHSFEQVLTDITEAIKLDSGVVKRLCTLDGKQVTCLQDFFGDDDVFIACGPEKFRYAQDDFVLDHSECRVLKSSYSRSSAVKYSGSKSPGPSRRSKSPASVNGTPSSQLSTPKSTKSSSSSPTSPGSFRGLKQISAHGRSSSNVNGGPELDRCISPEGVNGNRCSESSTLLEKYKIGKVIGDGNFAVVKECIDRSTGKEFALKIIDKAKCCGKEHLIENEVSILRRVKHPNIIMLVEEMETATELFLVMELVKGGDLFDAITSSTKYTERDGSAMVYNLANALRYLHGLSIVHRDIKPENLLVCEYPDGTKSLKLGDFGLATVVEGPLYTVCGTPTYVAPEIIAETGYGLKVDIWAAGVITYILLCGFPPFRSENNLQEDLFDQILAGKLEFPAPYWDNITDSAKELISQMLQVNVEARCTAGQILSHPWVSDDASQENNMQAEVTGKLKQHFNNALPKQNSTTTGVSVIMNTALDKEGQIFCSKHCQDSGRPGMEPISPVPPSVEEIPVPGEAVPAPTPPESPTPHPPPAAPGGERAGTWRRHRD
In words: Inhibition of human full length DCAMKL2 expressed in baculovirus assessed as substrate phosphorylation using fluorescence-labelled peptides as substrate at […] after 90 mins by microfluidic peptide phosphorylation assay.

Experiment [8] concerns the target Protein kinase C gamma type (Homo sapiens) (UniProt P05129). In words: Inhibition of human truncated PKC gamma expressed in baculovirus assessed as substrate phosphorylation using fluorescence-labelled peptides as substrate at 420 uM after 90 mins by microfluidic peptide phosphorylation assay.

Sequence of Tyrosine-protein kinase BTK (Homo sapiens) (Q06187 whole entry): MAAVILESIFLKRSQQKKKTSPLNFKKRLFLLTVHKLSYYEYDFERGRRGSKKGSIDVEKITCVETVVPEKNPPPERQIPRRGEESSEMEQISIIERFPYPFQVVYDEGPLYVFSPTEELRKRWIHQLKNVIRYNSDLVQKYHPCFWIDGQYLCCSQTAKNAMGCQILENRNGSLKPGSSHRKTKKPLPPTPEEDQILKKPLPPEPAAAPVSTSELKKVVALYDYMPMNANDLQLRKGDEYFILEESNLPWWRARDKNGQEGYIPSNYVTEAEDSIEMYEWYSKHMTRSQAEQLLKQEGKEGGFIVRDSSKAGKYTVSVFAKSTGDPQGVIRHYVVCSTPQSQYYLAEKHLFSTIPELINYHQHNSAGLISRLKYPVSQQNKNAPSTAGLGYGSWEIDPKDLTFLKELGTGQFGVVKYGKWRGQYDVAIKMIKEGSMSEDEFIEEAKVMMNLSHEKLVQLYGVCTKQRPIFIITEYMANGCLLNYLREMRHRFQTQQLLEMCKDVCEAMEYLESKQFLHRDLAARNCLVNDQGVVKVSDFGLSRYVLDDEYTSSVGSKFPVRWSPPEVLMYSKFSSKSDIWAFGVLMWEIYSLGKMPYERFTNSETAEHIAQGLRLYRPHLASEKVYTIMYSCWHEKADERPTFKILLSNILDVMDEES
Sequence of Ribosomal protein S6 kinase alpha-2 (Homo sapiens) (Q15349 whole entry): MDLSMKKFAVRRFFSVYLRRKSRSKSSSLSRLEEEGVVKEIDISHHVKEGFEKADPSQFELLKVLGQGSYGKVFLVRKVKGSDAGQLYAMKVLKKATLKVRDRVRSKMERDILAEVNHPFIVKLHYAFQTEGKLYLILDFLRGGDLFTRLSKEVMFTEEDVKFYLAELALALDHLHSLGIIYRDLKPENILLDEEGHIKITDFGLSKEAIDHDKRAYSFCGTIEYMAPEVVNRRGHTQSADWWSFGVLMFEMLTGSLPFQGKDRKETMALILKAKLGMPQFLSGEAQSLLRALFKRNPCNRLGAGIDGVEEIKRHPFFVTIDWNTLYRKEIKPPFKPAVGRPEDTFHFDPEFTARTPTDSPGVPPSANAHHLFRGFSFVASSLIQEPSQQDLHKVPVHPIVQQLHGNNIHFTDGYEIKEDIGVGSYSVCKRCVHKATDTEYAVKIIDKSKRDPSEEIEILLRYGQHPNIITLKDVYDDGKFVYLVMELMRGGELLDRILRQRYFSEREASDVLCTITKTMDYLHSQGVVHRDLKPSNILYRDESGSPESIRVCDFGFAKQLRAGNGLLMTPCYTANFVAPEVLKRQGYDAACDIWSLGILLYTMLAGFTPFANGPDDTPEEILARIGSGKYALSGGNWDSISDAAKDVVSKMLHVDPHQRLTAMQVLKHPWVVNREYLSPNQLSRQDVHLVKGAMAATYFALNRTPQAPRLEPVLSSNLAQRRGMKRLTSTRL
Sequence of Vascular endothelial growth factor receptor 2 (Homo sapiens) (P35968 whole entry, the tested form may be a part): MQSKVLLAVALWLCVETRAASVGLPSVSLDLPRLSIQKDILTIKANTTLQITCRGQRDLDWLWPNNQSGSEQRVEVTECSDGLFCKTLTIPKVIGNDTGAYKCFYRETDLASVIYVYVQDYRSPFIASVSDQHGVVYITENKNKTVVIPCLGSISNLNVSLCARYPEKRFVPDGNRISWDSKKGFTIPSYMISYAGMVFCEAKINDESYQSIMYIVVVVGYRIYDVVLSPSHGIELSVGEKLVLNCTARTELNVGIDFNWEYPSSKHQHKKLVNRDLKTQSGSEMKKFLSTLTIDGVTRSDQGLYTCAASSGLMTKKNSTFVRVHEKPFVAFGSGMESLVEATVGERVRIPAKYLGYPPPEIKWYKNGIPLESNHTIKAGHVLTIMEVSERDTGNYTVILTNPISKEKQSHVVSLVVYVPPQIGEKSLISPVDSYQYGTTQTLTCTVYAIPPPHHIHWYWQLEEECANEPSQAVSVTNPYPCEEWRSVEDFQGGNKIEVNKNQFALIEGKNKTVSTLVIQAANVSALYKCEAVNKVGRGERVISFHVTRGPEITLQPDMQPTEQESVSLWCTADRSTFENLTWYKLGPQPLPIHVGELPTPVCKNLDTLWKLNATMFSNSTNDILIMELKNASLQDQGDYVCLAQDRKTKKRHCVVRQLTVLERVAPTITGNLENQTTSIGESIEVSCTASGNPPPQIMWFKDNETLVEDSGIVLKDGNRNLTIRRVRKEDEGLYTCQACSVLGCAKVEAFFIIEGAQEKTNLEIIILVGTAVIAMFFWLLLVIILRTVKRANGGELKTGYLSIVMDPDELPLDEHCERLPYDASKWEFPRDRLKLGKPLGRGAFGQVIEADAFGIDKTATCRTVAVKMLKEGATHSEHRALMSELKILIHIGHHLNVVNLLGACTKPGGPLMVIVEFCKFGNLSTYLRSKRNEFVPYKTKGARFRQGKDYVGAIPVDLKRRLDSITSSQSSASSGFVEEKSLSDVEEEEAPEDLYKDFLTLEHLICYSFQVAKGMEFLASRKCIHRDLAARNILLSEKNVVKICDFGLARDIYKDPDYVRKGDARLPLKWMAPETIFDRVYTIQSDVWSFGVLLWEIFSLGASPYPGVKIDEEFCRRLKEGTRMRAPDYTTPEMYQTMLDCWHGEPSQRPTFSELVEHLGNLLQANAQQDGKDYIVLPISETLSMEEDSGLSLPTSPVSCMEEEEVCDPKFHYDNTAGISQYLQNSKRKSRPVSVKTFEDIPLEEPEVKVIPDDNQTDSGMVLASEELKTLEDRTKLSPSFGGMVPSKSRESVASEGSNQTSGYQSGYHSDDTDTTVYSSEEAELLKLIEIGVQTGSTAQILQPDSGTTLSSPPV
Sequence of Ribosomal protein S6 kinase alpha-1 (Homo sapiens) (Q15418 whole entry): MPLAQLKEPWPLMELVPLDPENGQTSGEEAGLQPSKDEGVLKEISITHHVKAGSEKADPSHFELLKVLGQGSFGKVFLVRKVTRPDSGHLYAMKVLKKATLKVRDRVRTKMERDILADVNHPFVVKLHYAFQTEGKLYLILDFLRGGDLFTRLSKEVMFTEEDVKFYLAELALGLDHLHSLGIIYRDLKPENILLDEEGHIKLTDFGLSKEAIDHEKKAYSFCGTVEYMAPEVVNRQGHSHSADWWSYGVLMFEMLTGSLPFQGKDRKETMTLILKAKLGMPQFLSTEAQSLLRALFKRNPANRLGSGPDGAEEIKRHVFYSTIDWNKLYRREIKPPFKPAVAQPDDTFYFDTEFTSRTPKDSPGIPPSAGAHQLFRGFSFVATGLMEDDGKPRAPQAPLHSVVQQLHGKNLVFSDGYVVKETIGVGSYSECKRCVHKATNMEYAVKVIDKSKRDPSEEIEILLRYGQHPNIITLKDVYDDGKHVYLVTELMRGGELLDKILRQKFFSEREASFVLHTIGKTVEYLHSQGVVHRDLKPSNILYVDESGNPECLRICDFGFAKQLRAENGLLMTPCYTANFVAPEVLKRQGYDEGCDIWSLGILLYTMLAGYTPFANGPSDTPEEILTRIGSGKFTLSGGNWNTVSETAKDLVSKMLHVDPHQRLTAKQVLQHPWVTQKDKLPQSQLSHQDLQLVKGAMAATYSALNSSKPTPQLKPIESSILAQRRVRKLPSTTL

In the case of `C[C@H](CN(C)C)Oc1nc(Nc2cc3cccc(Cl)c3cn2)cnc1C#N`, the inhibition in experiment [1] worked out at 14%. Take `Clc1ccc(C2(c3ccc(-c4ncnc5[nH]cnc45)cc3)CCNCC2)cc1`: the inhibition in experiment [2] was 38%.

For the molecule `NCC1CN(c2ncnc3[nH]c4cnccc4c23)CCO1` (stereo not drawn), the figures for the inhibition in experiment [3] and in experiment [4] were 23.5% and 0%, respectively.

In the case of `NCC1CCN(c2ncnc3[nH]ccc23)CC1`, the inhibition in experiment [5] worked out at 4.5%. Turning to `CNCc1ccc(-c2ncnc3[nH]cnc23)cc1`, in experiment [6], the inhibition turned out to be 81%.

As for `COC(=O)c1cnc(Nc2cnc(C#N)cn2)cc1NCC1CCNCC1`, the inhibition in experiment [7] came to 4.5%. For the molecule `c1nc(N2CCOCC2)c2nc[nH]c2n1`, in experiment [8], the inhibition stood at 66%.

Broadly, the inhibition is the relative decrease from the control value, in per cent.
